ChEMBL document CHEMBL3885881, “DrugMatrix”

Species: Rattus norvegicus
Assay: DrugMatrix - Regimen: Daily Repeat
Assay type: toxicity, organism-based, Sprague-Dawley
Parameters: regimen Daily Repeat, gender Male, age 6-8 weeks
Conditions: in vivo, po, route oral GAVAGE, […]; for ABSOLUTE BASOPHIL / ABSOLUTE EOSINOPHIL / ABSOLUTE LYMPHOCYTE / ABSOLUTE MONOCYTE / ABSOLUTE SEGMENTED NEUTROPHIL / BASOPHIL / EOSINOPHIL / ERYTHROCYTE COUNT / HEMATOCRIT / HEMOGLOBIN / LEUKOCYTE COUNT / LYMPHOCYTE / MEAN CORPUSCULAR HEMOGLOBIN / MEAN CORPUSCULAR HEMOGLOBIN CONCENTRATION / MEAN CORPUSCULAR VOLUME / MONOCYTE / NEUTROPHIL / NUCLEATED RED BLOOD CELLS / PLATELET COUNT: tissue Blood; for ALANINE AMINOTRANSFERASE / ALBUMIN / ALKALINE PHOSPHATASE / ASPARTATE AMINOTRANSFERASE / BLOOD UREA NITROGEN / CARBON DIOXIDE / CHLORIDE / CHOLESTEROL / CREATINE PHOSPHOKINASE / CREATININE / GLUCOSE / LACTATE DEHYDROGENASE / LIPASE / PHOSPHORUS / POTASSIUM / SODIUM / TOTAL BILIRUBIN / TOTAL PROTEIN / URIC ACID: tissue Plasma
[1] = 80 mg/kg, 120 h, dose level Low, time 5 day
[2] = 338 mg/kg, 72 h, dose level High, time 3 day
[3] = 338 mg/kg, 120 h, dose level High, time 5 day

With `CC(C)(Oc1ccc(C2CCCc3ccccc32)cc1)C(=O)O` (centres undefined) [NAFENOPIN] the “ABSOLUTE BASOPHIL” value [1] was 0 CELLS/uL, the “ABSOLUTE EOSINOPHIL” value [1] was 0 CELLS/uL and the “ABSOLUTE LYMPHOCYTE” value [1] was 12561 CELLS/uL. For the same molecule, the “ABSOLUTE MONOCYTE” value [1] was 516.67 CELLS/uL, the “ABSOLUTE SEGMENTED NEUTROPHIL” value [1] was 1089 CELLS/uL and the BASOPHIL [1] was 0%. The EOSINOPHIL [1] was 0%, the “ERYTHROCYTE COUNT” value [1] was 5.43 x10E6/uL and the HEMATOCRIT [1] was 32.67%. The HEMOGLOBIN [1] was 12.23 G/DL, the “LEUKOCYTE COUNT” value [1] was 14.17 x10E3/uL and the LYMPHOCYTE [1] was 88.67%. For the same molecule, the “MEAN CORPUSCULAR HEMOGLOBIN” value [1] was 22.57 pg, the “MEAN CORPUSCULAR HEMOGLOBIN CONCENTRATION” value [1] was 37.5 G/DL and the “MEAN CORPUSCULAR VOLUME” value [1] was 60.17 fL. The MONOCYTE [1] was 3.67%, the NEUTROPHIL [1] was 7.67% and the “NUCLEATED RED BLOOD CELLS” value [1] was 0 /100WBC. For the same molecule, the “PLATELET COUNT” value [1] was 828.67 x10E3/uL, the “ALANINE AMINOTRANSFERASE” value [1] was 61.67 u/L and the ALBUMIN [1] was 5.07 G/DL. The “ALKALINE PHOSPHATASE” value [1] was 578 u/L, the “ASPARTATE AMINOTRANSFERASE” value [1] was 85.33 u/L and the “BLOOD UREA NITROGEN” value [1] was 14.33 mg/dL. For the same molecule, the “CARBON DIOXIDE” value [1] was 32 mmol/L, the CHLORIDE [1] was 97 MEQ/L and the CHOLESTEROL [1] was 65.33 mg/dL. For the same molecule, the “CREATINE PHOSPHOKINASE” value [1] was 403.67 u/L, the CREATININE [1] was 0.25 mg/dL and the GLUCOSE [1] was 148.67 mg/dL. The “LACTATE DEHYDROGENASE” value [1] was 257.33 u/L, the LIPASE [1] was 9.67 u/L and the PHOSPHORUS [1] was 13.43 mg/dL. For the same molecule, the POTASSIUM [1] was 6.96 MEQ/L, the SODIUM [1] was 142.07 MEQ/L and the “TOTAL BILIRUBIN” value [1] was 0.13 mg/dL. For the same molecule, the “TOTAL PROTEIN” value [1] was 6.07 G/DL, the “URIC ACID” value [1] was 1.23 mg/dL and the “ABSOLUTE BASOPHIL” value [2] was 0 CELLS/uL. The “ABSOLUTE EOSINOPHIL” value [2] was 40.33 CELLS/uL, the “ABSOLUTE LYMPHOCYTE” value [2] was 10009.33 CELLS/uL and the “ABSOLUTE MONOCYTE” value [2] was 484 CELLS/uL. For the same molecule, the “ABSOLUTE SEGMENTED NEUTROPHIL” value [2] was 1499.67 CELLS/uL, the BASOPHIL [2] was 0% and the EOSINOPHIL [2] was 0.33%. The “ERYTHROCYTE COUNT” value [2] was 5.41 x10E6/uL, the HEMATOCRIT [2] was 32.97% and the HEMOGLOBIN [2] was 12.87 G/DL. For the same molecule, the “LEUKOCYTE COUNT” value [2] was 12.03 x10E3/uL, the LYMPHOCYTE [2] was 83.33% and the “MEAN CORPUSCULAR HEMOGLOBIN” value [2] was 23.77 pg. The “MEAN CORPUSCULAR HEMOGLOBIN CONCENTRATION” value [2] was 39.03 G/DL, the “MEAN CORPUSCULAR VOLUME” value [2] was 60.93 fL and the MONOCYTE [2] was 4%. For the same molecule, the NEUTROPHIL [2] was 12.33%, the “NUCLEATED RED BLOOD CELLS” value [2] was 0 /100WBC and the “PLATELET COUNT” value [2] was 1008 x10E3/uL. The “ALANINE AMINOTRANSFERASE” value [2] was 113 u/L, the ALBUMIN [2] was 4.73 G/DL and the “ALKALINE PHOSPHATASE” value [2] was 921 u/L. The “ASPARTATE AMINOTRANSFERASE” value [2] was 143 u/L, the “BLOOD UREA NITROGEN” value [2] was 13.67 mg/dL and the “CARBON DIOXIDE” value [2] was 22 mmol/L. The CHLORIDE [2] was 104 MEQ/L, the CHOLESTEROL [2] was 59.67 mg/dL and the “CREATINE PHOSPHOKINASE” value [2] was 584.33 u/L. The CREATININE [2] was 0.7 mg/dL, the GLUCOSE [2] was 143.67 mg/dL and the “LACTATE DEHYDROGENASE” value [2] was 415.33 u/L. It also gave an LIPASE [2] of 10 u/L, a PHOSPHORUS [2] of 12.27 mg/dL and a POTASSIUM [2] of 6.14 MEQ/L. For the same molecule, the SODIUM [2] was 143.63 MEQ/L, the “TOTAL BILIRUBIN” value [2] was 0.2 mg/dL and the “TOTAL PROTEIN” value [2] was 5.63 G/DL. The “URIC ACID” value [2] was 1.23 mg/dL, the “ABSOLUTE BASOPHIL” value [3] was 0 CELLS/uL and the “ABSOLUTE EOSINOPHIL” value [3] was 38 CELLS/uL. For the same molecule, the “ABSOLUTE LYMPHOCYTE” value [3] was 11719.67 CELLS/uL, the “ABSOLUTE MONOCYTE” value [3] was 400 CELLS/uL and the “ABSOLUTE SEGMENTED NEUTROPHIL” value [3] was 1175.67 CELLS/uL. The BASOPHIL [3] was 0%, the EOSINOPHIL [3] was 0.33% and the “ERYTHROCYTE COUNT” value [3] was 5.3 x10E6/uL. The HEMATOCRIT [3] was 30.47%, the HEMOGLOBIN [3] was 11.43 G/DL and the “LEUKOCYTE COUNT” value [3] was 13.33 x10E3/uL. The LYMPHOCYTE [3] was 88%, the “MEAN CORPUSCULAR HEMOGLOBIN” value [3] was 21.6 pg and the “MEAN CORPUSCULAR HEMOGLOBIN CONCENTRATION” value [3] was 37.53 G/DL. The “MEAN CORPUSCULAR VOLUME” value [3] was 57.53 fL, the MONOCYTE [3] was 3% and the NEUTROPHIL [3] was 8.67%. For the same molecule, the “NUCLEATED RED BLOOD CELLS” value [3] was 0 /100WBC, the “PLATELET COUNT” value [3] was 850.67 x10E3/uL and the “ALANINE AMINOTRANSFERASE” value [3] was 87 u/L. For the same molecule, the ALBUMIN [3] was 4.73 G/DL, the “ALKALINE PHOSPHATASE” value [3] was 891.33 u/L and the “ASPARTATE AMINOTRANSFERASE” value [3] was 88.67 u/L. For the same molecule, the “BLOOD UREA NITROGEN” value [3] was 12.67 mg/dL, the “CARBON DIOXIDE” value [3] was 29 mmol/L and the CHLORIDE [3] was 98 MEQ/L. For the same molecule, the CHOLESTEROL [3] was 96.67 mg/dL, the “CREATINE PHOSPHOKINASE” value [3] was 209.67 u/L and the CREATININE [3] was 0.65 mg/dL. The GLUCOSE [3] was 129.67 mg/dL, the “LACTATE DEHYDROGENASE” value [3] was 216.67 u/L and the LIPASE [3] was 10 u/L. It also gave a PHOSPHORUS [3] of 12.7 mg/dL, a POTASSIUM [3] of 6.55 MEQ/L and an SODIUM [3] of 143.43 MEQ/L. For the same molecule, the “TOTAL BILIRUBIN” value [3] was 0.23 mg/dL, the “TOTAL PROTEIN” value [3] was 5.67 G/DL and the “URIC ACID” value [3] was 1.3 mg/dL.
